Like-named read-outs stand apart in the source and are kept apart here.
What was measured:
[1] = tested on: methicillin-susceptible S. aureus (MSSA), MRSA and mutants thereof; assay: MIC measurement, Test Example 3 (MSSA, MRSA and sequential gyrA/grlA quinolone-resistant mutants); assay type: cell-based, Staphylococcus aureus; conditions: for MIC: Staphylococcus aureus
Excerpt: That is, the first-step quinolone-resistant mutants are bacterial strains which are the same as their parent strains (clinical isolates) except that the genes shown in the corresponding parts of Table 1-1 are mutated. The second-step quinolone-resistant mutants are bacterial strains which are the same as the first-step quinolone-resistant mutants except that the genes shown in the corresponding parts of Table 1-1 are further mutated. The third-step quinolone-resistant mutants are bacterial strains which are the same as the second-step quinolone-resistant mutants except that the genes shown in the corresponding parts of Table 1-1 are further mutated. The fourth-step quinolone-resistant strain is a bacterial strain which is the same as the third-step quinolone-resistant mutant bacteria except that the gene shown in the corresponding part of Table 1-1 is further mutated.
(§1) Each of the bacterial strains listed in Table 1-1 was shake-cultured at 37° C. overnight in 4 mL of a medium (Tryptical Soy Broth: TSB, product of Becton Dickinson and Company). FDA209P was used as a control.
(§2) After completion of culturing, the resultant culture was suspended in a cation-adjusted Mueller Hinton Broth (CAMHB, product of Becton Dickinson and Company). Then, the obtained bacterial culture was adjusted in absorbance with the CAMHB so that the absorbance at 578 nm of the bacterial culture was adjusted to 0.3 measured by an absorption spectrometer. In addition, the resultant bacterial culture was 500-fold diluted with the CAMHB.
(§3) Each of the 500-fold diluted, pre-cultured bacterial cultures was added at 50 μL/well to the CAMHB containing the quinolones and the nybomycins at various concentrations (50 μL/well), followed by statically culturing at 37° C. overnight.
(§4) After completion of culturing, the growth of the bacteria was visually determined based on turbidity to measure MIC in each bacterial strain.

Enterococcus faecalis = assay: MIC measurement, Test Example 6 (enterococcus); assay type: cell-based; conditions: Enterococcus faecalis, read-out: MIC
Procedure: as §1, §2, §3, §4
Quinolones and nybomycins were evaluated for antibacterial activity against Enterococcus faecalis shown in Table 6, wherein the other strains than NCTC12201 and NCTC12203 were subdivided from Shionogi & Co., Ltd (note that these strains are available also from the Department of Bacteriology, Juntendo University). The NCTC strains are both vancomycin-resistant E. faecalis and available from the National Collection of Type Cultures (NCTC).

[2] = tested on: MRSA, CA-MRSA and MSSA of Staphylococcus aureus; assay: MIC measurement, Test Example 4 (MRSA, CA-MRSA and MSSA strains); assay type: cell-based; conditions: for MIC: Staphylococcus aureus
Procedure: as §1, §2, §3, §4
Glycopeptides, imipenem, quinolones and nybomycins were studied for antibacterial activity against the bacterial strains listed in Table 2-1; i.e., MRSA, CA-MRSA and MSSA of Staphylococcus aureus.

VRSA clinical isolates = assay: microbe, parasite or virus in culture; assay type: cell-based; conditions: Staphylococcus aureus
Procedure: as §1, §2, §3, §4
Here, the glycopeptides used were VCM and TEIC. The β-lactam used was OXA.

[3] = MR5867-4, fourth-step mutant, further gyrA E88K
[4] = MS5935-3, third-step mutant, further grlA E84K
[5] = MS5952-3, third-step mutant, further grlA A116V
[6] = E. faecalis 36-15672, quinolone-susceptible enterococci
[7] = E. faecalis 36-15673, quinolone-susceptible enterococci
[8] = E. faecalis 36-15678, quinolone-susceptible enterococci
[9] = E. faecalis 36-15686, quinolone-resistant enterococci
[10] = E. faecalis 36-15688, quinolone-susceptible enterococci
[11] = E. faecalis 36-15694, quinolone-resistant enterococci
[12] = E. faecalis 36-15696, quinolone-susceptible enterococci
[13] = E. faecalis 36-15703, quinolone-resistant enterococci
[14] = E. faecalis 36-15716, quinolone-resistant enterococci
[15] = E. faecalis 36-15718, quinolone-susceptible enterococci
[16] = E. faecalis 36-15720, quinolone-susceptible enterococci
[17] = E. faecalis 36-15722, quinolone-resistant enterococci
[18] = E. faecalis 36-15726, quinolone-resistant enterococci
[19] = E. faecalis 36-15730, quinolone-susceptible enterococci
[20] = E. faecalis 36-15736, quinolone-susceptible enterococci
[21] = E. faecalis 36-15741, quinolone-susceptible enterococci
[22] = NCTC 12201 / VRE, E. faecalis NCTC12201, vancomycin-resistant (VRE), quinolone-susceptible enterococci
[23] = NCTC 12203 / VRE, E. faecalis NCTC12203, vancomycin-resistant (VRE), quinolone-susceptible enterococci
[24] = ATCC 29213 / MRSA / MSSA, ATCC 29213, MSSA
[25] = FDA209P / MRSA / MSSA, FDA209P, MSSA
[26] = MRSA / MSSA / NCTC 8325, NCTC 8325, MSSA
[27] = MRSA / MSSA / USA300, USA300 FPR3757, CA-MRSA

Cc1cc(=O)n(C)c2c3c4c(cc12)c(C)cc(=O)n4CO3 [DNM, deoxynybomycin]
≤ 0.063 µg/mL: MIC ([1]; MR5867-2, second-step mutant, further gyrA S84L) | MIC ([1]; MR5867-3, third-step mutant, further grlA S80F) | MIC [1, 3] | MIC [1, 5] | MIC ([2]; KBSA72, MRSA) | MIC ([2]; KBSA96, MRSA) | MIC ([2]; KBSA171, MRSA) | MIC ([2]; KSA36, MRSA) | MIC (VRSA clinical isolates; VRS1, VRSA, Michigan) | MIC (VRSA clinical isolates; VRS3, VRSA, New York) | MIC (VRSA clinical isolates; VRS4, VRSA, New York) | MIC (VRSA clinical isolates; VRS5, VRSA, Michigan) | MIC (VRSA clinical isolates; VRS6, VRSA, Michigan)
8 µg/mL: MIC [2, 25] | MIC ([2]; ISA51-1, MSSA) | MIC ([2]; ISA58-1, MRSA)
2 µg/mL: MIC (Enterococcus faecalis; [9]) | MIC (Enterococcus faecalis; [11]) | MIC (Enterococcus faecalis; [18])
0.5 µg/mL: MIC ([1]; MS5935-2, second-step mutant, further gyrA S84L) | MIC [1, 4] | MIC ([1]; MS5952-2, second-step mutant, further gyrA S84L)
> 64 µg/mL: MIC (Enterococcus faecalis; [6]) | MIC (Enterococcus faecalis; [7]) | MIC (Enterococcus faecalis; [8]) | MIC (Enterococcus faecalis; [10]) | MIC (Enterococcus faecalis; [12]) | MIC (Enterococcus faecalis; [16]) | MIC (Enterococcus faecalis; [20]) | MIC (Enterococcus faecalis; [21]) | MIC (Enterococcus faecalis; [23]) | MIC ([2]; COL, MRSA) | MIC ([2]; ISA37-1, MSSA) | MIC ([2]; ISA56-3, MRSA) | MIC ([2]; ISA62-1, MRSA) | MIC ([2]; ISA73-1, MSSA) | MIC ([2]; KBSA34, MRSA) | MIC [2, 26]
4 µg/mL: MIC (Enterococcus faecalis; [14]) | MIC (Enterococcus faecalis; [17])
0.25 µg/mL: MIC (Enterococcus faecalis; [13]) | MIC ([2]; KSA31, MRSA)
32 µg/mL: MIC (Enterococcus faecalis; [15]) | MIC ([2]; ISA12-1, MRSA) | MIC ([2]; KBSA32, MRSA) | MIC ([2]; N315, MRSA)
0.125 µg/mL: MIC ([2]; KSA24, MRSA) | MIC [2, 27] | MIC (VRSA clinical isolates; VRS2, VRSA, Pennsylvania) | MIC (VRSA clinical isolates; VRS7, VRSA, Michigan)
16 µg/mL: MIC (Enterococcus faecalis; [22]) | MIC [2, 24] | MIC ([2]; ISA12-2, MRSA) | MIC ([2]; ISA49-1, MSSA)
higher than that of NM: antibacterial activity, comparison between NM and DNM ([1]; Table 1-2 strains) | antibacterial activity, comparison between NM and DNM ([2]; against Staphylococcus aureus)
64 µg/mL: MIC (Enterococcus faecalis; [19]) | MIC ([2]; ISA35-1, MRSA) | MIC ([2]; MW2, CA-MRSA)

C[C@H]1COc2c(N3CCN(C)CC3)c(F)cc3c(=O)c(C(=O)O)cn1c23 [LVFX, levofloxacin]
1 µg/mL: MIC (Enterococcus faecalis; [6]) | MIC (Enterococcus faecalis; [7]) | MIC (Enterococcus faecalis; [8]) | MIC (Enterococcus faecalis; [10]) | MIC (Enterococcus faecalis; [12]) | MIC (Enterococcus faecalis; [16]) | MIC (Enterococcus faecalis; [20]) | MIC (Enterococcus faecalis; [22]) | MIC (Enterococcus faecalis; [23]) | MIC ([2]; ISA35-1, MRSA)
0.5 µg/mL: MIC ([2]; COL, MRSA) | MIC ([2]; ISA58-1, MRSA)
0.25 µg/mL: MIC ([2]; ISA12-1, MRSA) | MIC ([2]; ISA12-2, MRSA) | MIC ([2]; ISA37-1, MSSA) | MIC ([2]; ISA49-1, MSSA) | MIC ([2]; ISA51-1, MSSA) | MIC ([2]; ISA56-3, MRSA) | MIC ([2]; ISA62-1, MRSA) | MIC ([2]; KBSA34, MRSA) | MIC [2, 26]
> 128 µg/mL: MIC [1, 3] | MIC ([2]; KBSA72, MRSA) | MIC ([2]; KSA36, MRSA) | MIC (VRSA clinical isolates; VRS5, VRSA, Michigan)
4 µg/mL: MIC ([2]; KSA31, MRSA)
0.125 µg/mL: MIC [2, 24] | MIC ([2]; ISA73-1, MSSA) | MIC ([2]; KBSA32, MRSA) | MIC ([2]; MW2, CA-MRSA) | MIC ([2]; N315, MRSA)
32 µg/mL: MIC [1, 5] | MIC (Enterococcus faecalis; [13]) | MIC (Enterococcus faecalis; [14]) | MIC [2, 27] | MIC (VRSA clinical isolates; VRS4, VRSA, New York) | MIC (VRSA clinical isolates; VRS6, VRSA, Michigan) | MIC (VRSA clinical isolates; VRS7, VRSA, Michigan)
16 µg/mL: MIC ([2]; KBSA171, MRSA) | MIC (VRSA clinical isolates; VRS1, VRSA, Michigan) | MIC (VRSA clinical isolates; VRS2, VRSA, Pennsylvania) | MIC (VRSA clinical isolates; VRS3, VRSA, New York)
64 µg/mL: MIC [1, 4] | MIC (Enterococcus faecalis; [9]) | MIC (Enterococcus faecalis; [11]) | MIC (Enterococcus faecalis; [17]) | MIC (Enterococcus faecalis; [18])
8 µg/mL: MIC ([2]; KBSA96, MRSA) | MIC ([2]; KSA24, MRSA)
2 µg/mL: MIC (Enterococcus faecalis; [15]) | MIC (Enterococcus faecalis; [19]) | MIC (Enterococcus faecalis; [21])
≤ 0.063 µg/mL: MIC ([1]; FDA209P / MRSA / MSSA, FDA209P (MSSA), control, read-out: MIC) | MIC [2, 25]

Cc1onc(-c2ccccc2)c1C(=O)N[C@@H]1C(=O)N2[C@@H]1SC(C)(C)[C@@H]2C(=O)O [OXA, oxacillin]
16 µg/mL: MIC ([2]; KBSA34, MRSA) | MIC [2, 27]
0.25 µg/mL: MIC [2, 24]
128 µg/mL: MIC ([2]; KBSA72, MRSA) | MIC ([2]; KBSA96, MRSA) | MIC ([2]; KSA24, MRSA) | MIC ([2]; KSA31, MRSA)
32 µg/mL: MIC ([2]; N315, MRSA)
> 128 µg/mL: MIC ([2]; KBSA171, MRSA) | MIC ([2]; KSA36, MRSA)
> 16 µg/mL: MIC ([2]; COL, MRSA)
1 µg/mL: MIC ([2]; ISA49-1, MSSA) | MIC ([2]; ISA51-1, MSSA) | MIC ([2]; ISA73-1, MSSA) | MIC [2, 26]
≤ 0.063 µg/mL: MIC [2, 25]
2 µg/mL: MIC ([2]; ISA37-1, MSSA)
8 µg/mL: MIC ([2]; ISA56-3, MRSA) | MIC ([2]; ISA62-1, MRSA) | MIC ([2]; KBSA32, MRSA) | MIC ([2]; MW2, CA-MRSA)
4 µg/mL: MIC ([2]; ISA12-1, MRSA) | MIC ([2]; ISA12-2, MRSA) | MIC ([2]; ISA35-1, MRSA) | MIC ([2]; ISA58-1, MRSA)

CN[C@H](CC(C)C)C(=O)N[C@H]1C(=O)N[C@@H](CC(N)=O)C(=O)N[C@H]2C(=O)N[C@H]3C(=O)N[C@H](C(=O)N[C@H](C(=O)O)c4cc(O)cc(O)c4-c4cc3ccc4O)[C@H](O)c3ccc(c(Cl)c3)Oc3cc2cc(c3O[C@@H]2O[C@H](CO)[C@@H](O)[C@H](O)[C@H]2O[C@H]2C[C@](C)(N)[C@H](O)[C@H](C)O2)Oc2ccc(cc2Cl)[C@H]1O [VCM, vancomycin]
0.5 µg/mL: MIC [2, 24] | MIC ([2]; COL, MRSA) | MIC [2, 25] | MIC ([2]; ISA12-1, MRSA) | MIC ([2]; ISA12-2, MRSA) | MIC ([2]; KBSA32, MRSA) | MIC ([2]; MW2, CA-MRSA) | MIC ([2]; N315, MRSA)
2 µg/mL: MIC ([2]; ISA56-3, MRSA)
1 µg/mL: MIC ([2]; ISA35-1, MRSA) | MIC ([2]; ISA37-1, MSSA) | MIC ([2]; ISA49-1, MSSA) | MIC ([2]; ISA51-1, MSSA) | MIC ([2]; ISA58-1, MRSA) | MIC ([2]; ISA62-1, MRSA) | MIC ([2]; ISA73-1, MSSA) | MIC ([2]; KBSA34, MRSA) | MIC ([2]; KBSA72, MRSA) | MIC ([2]; KBSA96, MRSA) | MIC ([2]; KBSA171, MRSA) | MIC ([2]; KSA24, MRSA) | MIC ([2]; KSA31, MRSA) | MIC ([2]; KSA36, MRSA) | MIC [2, 26] | MIC [2, 27]
